From patent US20140088056A1, “CARDIAC GLYCOSIDES ARE POTENT INHIBITORS OF INTERFERON-BETA GENE EXPRESSION” (priority 2010, published 2014)

Experiments:
[1] = tested on: PRDIII/I element of the IFNβ promoter; type: cell-based, human; conditions: 1 uM, compared with no drug treatment
Description: (§2) 293T cells were transfected with the IFNβ promoter driving a firefly luciferase reporter together a reference renilla luciferase reporter plasmid. […] Firefly luciferase activities were measured after another 24 hrs and normalized to that of renilla activities. […] Experiments were conducted same as in A, but PRDIV, PRDIII/I and PRDII driving luciferase reporter plasmids were used instead.

[2] = tested on: PRDII element of the IFNβ promoter; type: cell-based, human; conditions: 1 uM, compared with no drug treatment
Description: as §2

[3] = tested on: PRDIV element of the IFNβ promoter; type: cell-based, human; conditions: absence of virus infection
Description: as §2

Hela and MG63 cells = experiment: RT-PCR of IFNβ gene induction in Hela and MG63 cells; type: cell-based, human
Description: 6 hrs later, cells were harvested and RNA extracted for RT-PCR analysis for the expression of various genes.

293T cells [4] = experiment: Intracellular sodium concentration measurement (SBFI) in 293T cells; type: cell-based, human; conditions: 1 μM, 30 minutes; from about 20 mM without
Description: Bound RIG-I protein was analyzed by western blot (top panel). The expression of IFNβ and Cxcl 10 genes in these cells was also analyzed by RT-PCR (bottom panel). FIG. 3B, high salt concentration inhibits RIG-I helicase activities while the effect on RNA binding is minor. Recombinant RIG-I protein was incubated with dsRNA (67 bp) in the presence of increasing NaCl and KCl concentrations. RNA binding was monitored by native agarose gel analysis (top panel). For the ATPase activities, samples were adjusted to 1 mM ATP and further incubated for 15 min at 37° C., free phosphate released was measured with BIOMOL GREEN reagent. The image of the plate was shown in the bottom panel, and signals from the reading were quantified and graphed in the middle panel. The lanes of the gel, bars of the graph and wells in the ATPase assay are aligned according to experimental conditions. […] 293T cells were loaded with 10 μM SBFI-AM in the presence of 0.02% Pluronic F-127 for 1 hour at 37° C. […] To generate the standard curve, SBFI-Am loaded cells were exposed to solutions with increasing concentrations of sodium in the presence of 10 μM gramicidin for 30 minutes at 37° C. and 340/380 nm fluorescence ratio determined. […]

MEFs = experiment: RT-PCR of IFNβ induction in mouse embryonic fibroblasts (MEFs); type: cell-based; conditions: 1 uM; SeV, dsRNA, dsDNA
Text: As discussed above, the mouse ATP1a1 protein is not sensitive to cardiac glycoside binding.

[5] = tested on: PRDII element (NFkB binding site); type: cell-based, human; conditions: bufalin and TNF 24 hrs
[6] = tested on: endogenous TNF target genes; experiment: RT-PCR of TNF induced gene expression in 293T cells; type: cell-based, human; conditions: 6 hrs
IFN signaling = experiment: IFN induced gene expression in Hela cells; type: cell-based, human; conditions: 1 μM
Description: Total RNA or protein were harvested for the expression analysis of specific genes by RT-PCR or Western blot.
Specifically, the inventors tested interferon (IFN), tumor necrosis factor (TNF), epidermal growth factor (EGF) signaling, and treatment with lipopolysacchoride (LPS).

293T cells [7] = experiment: CellTiter-Blue and CellTiter-Glo viability assays; type: cell-based, human; conditions: 1 nM to 10 μM, 8 hours
Description: (§1) The cells were also exposed to 0.1% Triton X-100 for 1 hr before the viability assay as a control (FIG. 16E). Data represent mean values±s.d. (n=3). […] Cells were harvested and washed, then stained with Allophycocyanin (APC) conjugated Annexin V and 7-AAD for 15 minutes and subjected to flow cytometry analysis. The number in each graph is the percentile of Annexin V or 7-AAD positive populations. […] Total protein lysates were prepared and separated on SDS-PAGE for Western blot analysis of PARP1, cleaved PARP1, cleaved Caspase3, LC3B, ATP1a1, and beta-actin expression.
8 hours later, 20 μl of the CellTiter-Blue reagent (Promega) was added to each well and incubated for two more hours at 37° C. Fluorescence was recorded from 560 nm excitation/590 nm emission with a Spectramax Plus 384 plate reader. For CellTiter-Glo Luminescent viability assay, […] reagent (Promega) was added to each well and mixed, and incubated for 10 minutes at room temperature. Luminescence was measured with an Analyst AD plate reader.

293T cells [8] = experiment: Western blot analysis of apoptosis and autophagy; type: cell-based, human; conditions: 8 hours, bufalin 1 nM to 10 μM, staurosporine 4 μM
Description: as §1
Apoptosis and autophagy were also analyzed by Western blots. […] Total protein lysates were prepared and separated on SDS-PAGE for Western blot analysis of PARP1, cleaved PARP1, cleaved Caspase3, LC3B, ATP1a1, and beta-actin expression.

mice = experiment: LPS induced lethality in mice; type: in vivo; conditions: 15 μg/mouse i.p. 30 min before LPS 80 mg/kg i.p.; 4 days
Description: The survival of injected animals was closely monitored for 4 days.

[9] = tested on: cytoplasmic RNA polymerase III; experiment: Re-transfection of RNA from dsDNA transfected, bufalin treated 293T cells; type: cell-based, human
Description: Total RNA from these cells were extracted and re-transfected into fresh 293T cells (8 ug for 2 million cells) for 6 hrs, the induction of IFNβ and Cxcl10 genes from these samples were analyzed by RT-PCR.
Furthermore, RIG-I can also be the target in the dsDNA activation pathway. […] This was achieved through a critical sensor: RNA polymerase III, which transcribes 5′-ppp bearing “panhandle” RNA from the dsDNA template, these nascent RNAs then activated the IFNb expression through the RIG-1-MAVS pathway. See, for example, Ablasser, A. et al. RIG-I-dependent sensing of poly(dA:dT) through the induction of an RNA polymerase III-transcribed RNA intermediate. Nat Immunol 10, 1065-72 (2009) and Chiu, Y. H., Macmillan, J. B. & Chen, Z. J. RNA polymerase III detects cytosolic DNA and induces type I interferons through the RIG-I pathway. Cell 138, 576-91 (2009), content of both of which is herein incorporated by reference.

C[C@]12CC[C@H](O)C[C@H]1CC[C@@H]1[C@H]2CC[C@]2(C)[C@@H](c3ccc(=O)oc3)CC[C@]12O [Bufalin]
repression of viral induction of luciferase expression, PRDIII/I reporter [1]: > 86% | repression of viral induction of luciferase expression, PRDII reporter [2]: > 86% | activity of PRDIV reporter [3]: weakly induced | poly I:C and poly dA:dT induced IFNβ expression in Hela and Mg63 cells (Hela and MG63 cells): strongly inhibited | virus induced IFNβ expression in Hela and MG63 cells (Hela and MG63 cells): less than observed with 293T and Namalwa cells | intracellular sodium concentration (293T cells [4]): over 120 mM | induction of IFNβ gene by various inducers in MEFs (MEFs): little effects | decrease of TNF induced luciferase gene expression [5]: 40% | expression of endogenous TNF target genes [6]: significantly inhibited | IFN induction of Stat1 and ISG15 genes (IFN signaling): no effect | IFN induced expression of Cxcl10 and RIG-I genes (IFN signaling; IFN 1000 U/ml, 6 hours): weakly inhibited | cell viability (293T cells [7]): did not severely impair | cleavage products of PARP1 and Caspase3 (indication of apoptosis) (293T cells [8]): not observed | induction of LC3B-II (marker of autophagy) (293T cells [8]; BFA 100 nM): not observed | lethality induced by a high dose of LPS (mice): partially reduce | activity of cytoplasmic RNA polymerase III [9]: inhibited
